Literature values in patent US20130029862A1, “Clinical application utilizing genetic data for effective medication management” (priority 2011, published 2013).

Assays:
[1] = Met/Met (A/A) compared to Val/Val (G/G), COMT rs4680
[2] = carriers of C allele compared to T/T homozygotes, ApoE rs7412

Row | Structure (SMILES) | response with antidepressant [1] | weight gain [2]
1 | Fc1ccc([C@@H]2CCNC[C@H]2COc2ccc3c(c2)OCO3)cc1 [paroxetine] | Better response with antidepressant | 
2 | Cc1cc2c(s1)Nc1ccccc1N=C2N1CCN(C)CC1 [olanzapine] |  | likely to gain weight on olanzapine
